Laboratory results as given in patent publication US11090319B2, “Therapeutic uses of pharmaceutical compositions comprising cyclic boronic acid ester derivatives” (Melinta Subsidiary Corp., priority 2010, dated 2021).

Columns and labels:
Experiment in all cases: Ceftazidime MIC with fixed concentration of BLI
Type in all cases: cell-based
[1] = test system: AB1054 Acinetobacter baumannii OXA-23; settings: AB1054 OXA-23
Description: (§1) Next, ceftazidime potentiation activity of several cyclic boronic acid ester derivatives was tested using a larger panel of strains expressing β-lactamase hydrolyzing enzymes. Ceftazidime MICs were determined alone and in the presence of fixed concentrations of various cyclic boronic acid ester derivatives.

[2] = test system: CF1000 Citrobacter freundii Hyper AmpC expression
Description: as §1

[3] = test system: EC1004 Escherichia coli CMY-2; settings: EC1004 CMY-2
Description: as §1

[4] = test system: EC1006 Escherichia coli FOX-5; settings: EC1006 FOX-5
Description: as §1

[5] = test system: EC1007 Escherichia coli KPC-3; settings: EC1007 KPC-3
Description: as §1

[6] = test system: EC1008 Escherichia coli CTX-M3
Description: as §1

[7] = test system: EC1009 Escherichia coli TEM-10; settings: EC1009 TEM-10
Description: as §1

[8] = test system: EC1010 Escherichia coli CMY-6; settings: EC1010 CMY-6
Description: as §1

[9] = test system: EC1012 Escherichia coli TEM-12; settings: EC1012 TEM-12
Description: as §1

[10] = test system: EC1014 Escherichia coli DHA-1; settings: EC1014 DHA-1
Description: as §1

[11] = test system: ECL1002 Enterobacter cloacae Hyper AmpC expression
Description: as §1

[12] = test system: KP1004 Klebsiella pneumoniae KPC-2; settings: KP1004 KPC-2
Description: as §1

[13] = test system: KP1005 Klebsiella pneumoniae CTX-M-14; settings: KP1005 CTX-M-14
Description: as §1

[14] = test system: KP1007 Klebsiella pneumoniae OXA-10; settings: KP1007 OXA-10
Description: as §1

[15] = test system: KP1008 Klebsiella pneumoniae KPC-2; settings: KP1008 KPC-2
Description: as §1

[16] = test system: KP1009 Klebsiella pneumoniae CTX-M-15; settings: KP1009 CTX-M-15
Description: as §1

[17] = test system: KP1010 Klebsiella pneumoniae SHV-12; settings: KP1010 SHV-12
Description: as §1

[18] = test system: KP1012 Klebsiella pneumoniae SHV-18; settings: KP1012 SHV-18
Description: as §1

[19] = test system: KX1000 Klebsiella oxytoca OXA-2; settings: KX1000 OXA-2
Description: as §1

[20] = test system: PAM2005 Pseudomonas aeruginosa ampC
Description: as §1

[21] = test system: PAM2035 Pseudomonas aeruginosa ampC mexA:tet
Description: as §1

[22] = test system: ec300 Escherichia coli TEM-3; settings: ec300 TEM-3
Description: as §1

[23] = test system: ec301 Escherichia coli TEM-6; settings: ec301 TEM-6
Description: as §1

[24] = test system: ec302 Escherichia coli TEM-10; settings: ec302 TEM-10
Description: as §1

[25] = test system: ec303 Escherichia coli TEM-12; settings: ec303 TEM-12
Description: as §1

[26] = test system: ec306 Escherichia coli SHV-2; settings: ec306 SHV-2
Description: as §1

[27] = test system: ec307 Escherichia coli SHV-4; settings: ec307 SHV-4
Description: as §1

[28] = test system: ec308 Escherichia coli SHV-5; settings: ec308 SHV-5
Description: as §1

[29] = test system: ec309 Escherichia coli MIR-1; settings: ec309 MIR-1
Description: as §1

[30] = test system: ec310 Escherichia coli ACT-1; settings: ec310 ACT-1
Description: as §1

[31] = test system: pa1063 Pseudomonas aeruginosa GES-1; settings: pa1063 GES-1
Description: as §1

[32] = Escherichia coli, read-out: Ceftazidime MIC Alone
[33] = Klebsiella pneumoniae, read-out: Ceftazidime MIC Alone
[34] = Pseudomonas aeruginosa, read-out: Ceftazidime MIC Alone

CC(C)(O/N=C(\C(=O)N[C@@H]1C(=O)N2C(C(=O)[O-])=C(C[n+]3ccccc3)CS[C@H]12)c1csc(N)n1)C(=O)O [Ceftazidime, reference compound]
MIC ([1]; Acinetobacter baumannii, read-out: Ceftazidime MIC Alone): > 8 µg/mL | MIC ([2]; Citrobacter freundii, read-out: Ceftazidime MIC Alone): > 8 µg/mL | MIC [3, 32]: > 8 µg/mL | MIC [4, 32]: > 8 µg/mL | MIC [5, 32]: > 8 µg/mL | MIC [6, 32]: > 8 µg/mL | MIC [7, 32]: > 8 µg/mL | MIC [8, 32]: > 8 µg/mL | MIC [9, 32]: > 8 µg/mL | MIC [10, 32]: > 8 µg/mL | MIC ([11]; Enterobacter cloacae, read-out: Ceftazidime MIC Alone): > 8 µg/mL | MIC [12, 33]: > 8 µg/mL | MIC [13, 33]: > 8 µg/mL | MIC [14, 33]: > 8 µg/mL | MIC [15, 33]: 1 to 8 µg/mL | MIC [16, 33]: > 8 µg/mL | MIC [17, 33]: > 8 µg/mL | MIC [18, 33]: > 8 µg/mL | MIC ([19]; Klebsiella oxytoca, read-out: Ceftazidime MIC Alone): > 8 µg/mL | MIC [20, 34]: > 8 µg/mL | MIC [21, 34]: > 8 µg/mL | MIC [22, 32]: > 8 µg/mL | MIC [23, 32]: > 8 µg/mL | MIC [24, 32]: > 8 µg/mL | MIC [25, 32]: > 8 µg/mL | MIC [26, 32]: > 8 µg/mL | MIC [27, 32]: > 8 µg/mL | MIC [28, 32]: > 8 µg/mL | MIC [29, 32]: > 8 µg/mL | MIC [30, 32]: > 8 µg/mL | MIC [31, 34]: > 8 µg/mL

CC(=O)N[C@H]1CCC(CC(=O)O)OB1O (stereo partly drawn) [Compound 3, 2-((3R)-3-acetamido-2-hydroxy-1,2-oxaborinan-6-yl)acetic acid]
Ceftazidime MIC with cyclic boronic acid ester derivative ([1]; derivative at 10 μg/mL): Z (MIC of greater than 8 μg/mL) | Ceftazidime MIC with cyclic boronic acid ester derivative ([2]; derivative at 10 μg/mL): Z (MIC of greater than 8 μg/mL) | Ceftazidime MIC with cyclic boronic acid ester derivative ([3]; derivative at 10 μg/mL): Y (MIC of greater than 1 μg/mL to 8 μg/mL) | Ceftazidime MIC with cyclic boronic acid ester derivative ([4]; derivative at 10 μg/mL): Y (MIC of greater than 1 μg/mL to 8 μg/mL) | Ceftazidime MIC with cyclic boronic acid ester derivative ([5]; derivative at 10 μg/mL): X (MIC of 1 μg/mL or less) | Ceftazidime MIC with cyclic boronic acid ester derivative ([6]; derivative at 10 μg/mL): Y (MIC of greater than 1 μg/mL to 8 μg/mL) | Ceftazidime MIC with cyclic boronic acid ester derivative ([7]; derivative at 10 μg/mL): Z (MIC of greater than 8 μg/mL) | Ceftazidime MIC with cyclic boronic acid ester derivative ([8]; derivative at 10 μg/mL): Z (MIC of greater than 8 μg/mL) | Ceftazidime MIC with cyclic boronic acid ester derivative ([9]; derivative at 10 μg/mL): Z (MIC of greater than 8 μg/mL) | Ceftazidime MIC with cyclic boronic acid ester derivative ([10]; derivative at 10 μg/mL): Y (MIC of greater than 1 μg/mL to 8 μg/mL) | Ceftazidime MIC with cyclic boronic acid ester derivative ([11]; derivative at 10 μg/mL): Z (MIC of greater than 8 μg/mL) | Ceftazidime MIC with cyclic boronic acid ester derivative ([12]; derivative at 10 μg/mL): Y (MIC of greater than 1 μg/mL to 8 μg/mL) | Ceftazidime MIC with cyclic boronic acid ester derivative ([13]; derivative at 10 μg/mL): Z (MIC of greater than 8 μg/mL) | Ceftazidime MIC with cyclic boronic acid ester derivative ([14]; derivative at 10 μg/mL): Z (MIC of greater than 8 μg/mL) | Ceftazidime MIC with cyclic boronic acid ester derivative ([15]; derivative at 10 μg/mL): X (MIC of 1 μg/mL or less) | Ceftazidime MIC with cyclic boronic acid ester derivative ([16]; derivative at 10 μg/mL): Z (MIC of greater than 8 μg/mL) | Ceftazidime MIC with cyclic boronic acid ester derivative ([17]; derivative at 10 μg/mL): Z (MIC of greater than 8 μg/mL) | Ceftazidime MIC with cyclic boronic acid ester derivative ([18]; derivative at 10 μg/mL): Z (MIC of greater than 8 μg/mL) | Ceftazidime MIC with cyclic boronic acid ester derivative ([19]; derivative at 10 μg/mL): Z (MIC of greater than 8 μg/mL) | Ceftazidime MIC with cyclic boronic acid ester derivative ([20]; derivative at 10 μg/mL): Z (MIC of greater than 8 μg/mL) | Ceftazidime MIC with cyclic boronic acid ester derivative ([21]; derivative at 10 μg/mL): Z (MIC of greater than 8 μg/mL) | Ceftazidime MIC with cyclic boronic acid ester derivative ([22]; derivative at 10 μg/mL): Z (MIC of greater than 8 μg/mL) | Ceftazidime MIC with cyclic boronic acid ester derivative ([23]; derivative at 10 μg/mL): Z (MIC of greater than 8 μg/mL) | Ceftazidime MIC with cyclic boronic acid ester derivative ([24]; derivative at 10 μg/mL): Z (MIC of greater than 8 μg/mL) | Ceftazidime MIC with cyclic boronic acid ester derivative ([25]; derivative at 10 μg/mL): Z (MIC of greater than 8 μg/mL) | Ceftazidime MIC with cyclic boronic acid ester derivative ([26]; derivative at 10 μg/mL): Z (MIC of greater than 8 μg/mL) | Ceftazidime MIC with cyclic boronic acid ester derivative ([27]; derivative at 10 μg/mL): Z (MIC of greater than 8 μg/mL) | Ceftazidime MIC with cyclic boronic acid ester derivative ([28]; derivative at 10 μg/mL): Z (MIC of greater than 8 μg/mL) | Ceftazidime MIC with cyclic boronic acid ester derivative ([29]; derivative at 10 μg/mL): Y (MIC of greater than 1 μg/mL to 8 μg/mL) | Ceftazidime MIC with cyclic boronic acid ester derivative ([30]; derivative at 10 μg/mL): Y (MIC of greater than 1 μg/mL to 8 μg/mL) | Ceftazidime MIC with cyclic boronic acid ester derivative ([31]; derivative at 10 μg/mL): Z (MIC of greater than 8 μg/mL)
